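Each compound was tested at five concentrations against cells in 96-well plates for 48 hours. The concentration for 50% growth inhibition is given as GI50.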 The source made the active and inactive calls. Cut-off read from the data, not from the text of the source: active = GI50 up to about 1.1 µM and inactive = higher.
What was measured:
Assay in all cases: NCI anticancer screen, dose series, 48 h
[1] = tested on: 786-0
[2] = tested on: DLD-1
[3] = tested on: DMS-273
[4] = tested on: HCT-15
[5] = tested on: HT-29
[6] = tested on: K562
[7] = tested on: LOX IMVI
[8] = tested on: MOLT-4
[9] = tested on: NCI-H226
[10] = tested on: NCI-H23
[11] = tested on: NCI-H460
[12] = tested on: SF-295
[13] = tested on: SK-MEL-2
[14] = tested on: SNB-75
[15] = tested on: U-251
[16] = tested on: UACC-62
[17] = tested on: MCF7
[18] = tested on: PC-3
[19] = tested on: SNB-19
[20] = tested on: LXFL 529

Row | Compound | GI50 [1] | GI50 [2] | GI50 [3] | GI50 [4] | GI50 [5] | GI50 [6] | GI50 [7] | GI50 [8] | GI50 [9] | GI50 [10] | GI50 [11] | GI50 [12] | GI50 [13] | GI50 [14] | GI50 [15] | GI50 [16] | GI50 [17] | GI50 [18] | GI50 [19] | GI50 [20]
1 | Cc1ccc(/C=C/C(=O)c2sc(-n3nc(-c4ccccc4)cc3-c3ccccc3)nc2C)cc1 | > 100 µM (inactive) | > 100 µM (inactive) | > 100 µM (inactive) | 57.7 µM | 55 µM (inactive) | 77.8 µM (inactive) | > 100 µM (inactive) | 8.39 µM (inactive) | > 100 µM (inactive) | > 100 µM (inactive) | > 100 µM (inactive) | > 100 µM (inactive) | > 100 µM (inactive) | 4.26 µM (inactive) | > 100 µM (inactive) | > 100 µM (inactive) |  |  |  | 
2 | Nc1ccn(C2OC(COC(=O)C34CC5CC(CC(C5)C3)C4)C(O)C2O)c(=O)n1 (stereo unspecified) | > 100 µM (inactive) | > 100 µM (inactive) | > 100 µM (inactive) | > 70.6 µM | > 57.5 µM (inactive) | 43.4 µM (inactive) | 7.01 µM (inactive) | 0.0679 µM (active) | > 100 µM (inactive) | 12.2 µM (inactive) | 0.392 µM (active) | > 100 µM (inactive) | > 100 µM (inactive) | > 100 µM (inactive) | > 100 µM (inactive) | > 100 µM (inactive) | 4.81 µM (inactive) | > 100 µM (inactive) | > 79.8 µM (inactive) | 
3 | Cc1ccc(NC(=O)c2cc3cc(/N=N/c4ccc(Br)cc4)ccc3oc2=O)cc1 | > 100 µM (inactive) | 46.5 µM (inactive) | 41.8 µM (inactive) | 46 µM | > 100 µM (inactive) |  | > 100 µM (inactive) | 83 µM (inactive) | > 100 µM (inactive) | > 100 µM (inactive) | > 100 µM (inactive) | > 100 µM (inactive) | > 100 µM (inactive) | > 100 µM (inactive) | > 100 µM (inactive) |  |  |  | 25.9 µM (inactive) | 
4 | Nc1nc(=O)n(C2CC(O)C(O)C(CO)O2)cc1F (stereo unspecified) | > 100 µM (inactive) | > 100 µM (inactive) |  | > 100 µM | > 100 µM (inactive) | > 100 µM (inactive) | > 100 µM (inactive) | > 100 µM (inactive) | > 100 µM (inactive) | > 100 µM (inactive) | > 100 µM (inactive) | > 100 µM (inactive) | > 100 µM (inactive) | > 100 µM (inactive) | > 100 µM (inactive) | > 100 µM (inactive) |  |  | > 100 µM (inactive) | > 100 µM (inactive)
5 | COc1ccc2nc(-c3ccc(O)cc3)cn2c1 | 58.7 µM (inactive) |  |  | 48.8 µM | 46.6 µM (inactive) | 37.1 µM (inactive) | 59 µM (inactive) | 49.1 µM (inactive) | > 100 µM (inactive) | 71.9 µM (inactive) | 27.4 µM (inactive) | > 100 µM (inactive) | > 100 µM (inactive) | 95.5 µM (inactive) | 44.7 µM (inactive) | 24.7 µM (inactive) | 36 µM (inactive) | 43.9 µM (inactive) | > 100 µM (inactive) | 
6 | N#Cc1ccccc1NC(=O)C(=O)C(C(=O)c1ccccc1-c1ccccc1)C1OC(=O)c2ccccc21 (stereo unspecified) | 14.8 µM (inactive) | 16 µM (inactive) |  |  | 33.3 µM (inactive) | 21.7 µM (inactive) | 15 µM (inactive) | 13.9 µM (inactive) | 2.58 µM (inactive) | 11.8 µM (inactive) | 18.2 µM (inactive) | 17.6 µM (inactive) | 16 µM (inactive) | 14.6 µM (inactive) | 11.7 µM (inactive) | 16.7 µM (inactive) |  |  |  | 
7 | C[n+]1c2ccccc2c(/C=N\NS(=O)(=O)c2ccc(Cl)cc2)c2ccccc21 | 51.9 µM (inactive) | 67.5 µM (inactive) | 41.8 µM (inactive) | 35.9 µM | 34 µM (inactive) | 17.7 µM (inactive) | 16.8 µM (inactive) | 32.9 µM (inactive) | 68.2 µM (inactive) | > 100 µM (inactive) | 32.4 µM (inactive) | 59.4 µM (inactive) | 46.7 µM (inactive) | 39.4 µM (inactive) | 45.8 µM (inactive) | 37.8 µM (inactive) |  |  | 59.2 µM (inactive) | 
8 | CC1(C)Oc2ccccc2OC1O (stereo unspecified) | > 100 µM (inactive) |  |  | > 100 µM | > 100 µM (inactive) | > 100 µM (inactive) | > 100 µM (inactive) | > 100 µM (inactive) | > 100 µM (inactive) | > 100 µM (inactive) | > 100 µM (inactive) | > 100 µM (inactive) | > 100 µM (inactive) | > 100 µM (inactive) | > 100 µM (inactive) | > 100 µM (inactive) | > 100 µM (inactive) | > 100 µM (inactive) | > 100 µM (inactive) | 
9 | CCOC(=O)NC(=O)c1cn(CCCOC(=O)CCCCCCCCC(=O)OCCCn2cc(C(=O)NC(=O)OCC)c(=O)[nH]c2=O)c(=O)[nH]c1=O | 15.8 µM (inactive) | 17.8 µM (inactive) | 20.5 µM (inactive) | 19.5 µM | 34.8 µM (inactive) | 4.01 µM (inactive) | 16.4 µM (inactive) | 19 µM (inactive) |  | > 10 µM (inactive) | 39.4 µM (inactive) | 22.8 µM (inactive) |  | 32.5 µM (inactive) | 16.7 µM (inactive) | 17.5 µM (inactive) |  |  | 22.3 µM (inactive) | 28 µM (inactive)
10 | c1cc2n(n1)CCN2 | 1120 µM (inactive) | 5420 µM (inactive) | 262 µM (inactive) | 2140 µM | 3130 µM (inactive) | 2000 µM (inactive) | 662 µM (inactive) | 348 µM (inactive) | 1960 µM (inactive) | 1060 µM (inactive) | 820 µM (inactive) | 348 µM (inactive) | 6460 µM (inactive) | 3400 µM (inactive) | 706 µM (inactive) | 374 µM (inactive) | 828 µM (inactive) | 1160 µM (inactive) | 4030 µM (inactive) | 
11 | CCOP1(=O)C=C(C)C(=C(Cl)Cl)C(C)=C1 (stereo unspecified) | 23.7 µM (inactive) | 24 µM (inactive) |  | 8.79 µM | 4.72 µM (inactive) | 3.52 µM (inactive) | 4.36 µM (inactive) | 5.64 µM (inactive) | 2.39 µM (inactive) | 15.8 µM (inactive) | 17.5 µM (inactive) | 6.24 µM (inactive) | 3.72 µM (inactive) | 3.33 µM (inactive) | 13.9 µM (inactive) | 6.46 µM (inactive) |  |  | 20.1 µM (inactive) | 3.78 µM (inactive)
12 | CN(C)CC(/C(Cc1ccccc1)=N\NC(=O)C[n+]1ccccc1)c1ccccc1 (stereo unspecified) | > 100 µM (inactive) |  | 38.8 µM (inactive) | > 100 µM | > 100 µM (inactive) | > 100 µM (inactive) | > 10 µM (inactive) | > 100 µM (inactive) | > 100 µM (inactive) | > 100 µM (inactive) | > 100 µM (inactive) | > 100 µM (inactive) | > 100 µM (inactive) | > 100 µM (inactive) | > 100 µM (inactive) | > 100 µM (inactive) |  |  | > 100 µM (inactive) | > 100 µM (inactive)
13 | CC1=C2C3OC(=O)C(C)C3C(O)C[C@@]2(C)C(=O)CC1 (stereo partly specified) | > 100 µM (inactive) | > 100 µM (inactive) | > 100 µM (inactive) | > 100 µM | > 100 µM (inactive) |  | > 100 µM (inactive) | > 100 µM (inactive) | > 100 µM (inactive) |  | > 100 µM (inactive) | > 100 µM (inactive) |  | > 100 µM (inactive) | > 100 µM (inactive) | > 100 µM (inactive) |  |  | > 100 µM (inactive) | > 100 µM (inactive)
14 | COc1cccc(/C=C\c2cc(OC)c(OC)c(OC)c2)c1 | 0.575 µM (active) | 0.49 µM (active) | 0.553 µM (active) | 0.693 µM | 0.423 µM (active) | 0.373 µM (active) |  | 0.379 µM (active) | 0.745 µM (active) | 1.32 µM (inactive) | 0.562 µM (active) |  |  | 0.652 µM (active) | 0.407 µM (active) | 0.455 µM (active) |  |  | 2.18 µM (inactive) | 2.49 µM (inactive)
15 | Cc1cc(C)c(C(=O)/C=C/c2ccccc2)c(C)c1 | 27.7 µM (inactive) | 22.6 µM (inactive) |  | 16.5 µM | 30.3 µM (inactive) | 26.5 µM (inactive) |  | 24.9 µM (inactive) | 22.8 µM (inactive) | 26.4 µM (inactive) | 18.7 µM (inactive) | 21.8 µM (inactive) | 10.4 µM (inactive) | 40.9 µM (inactive) | 15.9 µM (inactive) | 31.8 µM (inactive) |  |  | 28.5 µM (inactive) | 31.6 µM (inactive)
16 | COC1=C(Br)[C@H](O)[C@@]2(C=C1Br)CC(C(=O)NCCCOc1c(Br)cc(C(O)CNC(C)=O)cc1Br)=NO2 (stereo partly specified) [APLYSINAMISINE III] | > 10 µM (inactive) |  |  | > 10 µM | > 10 µM (inactive) | 2.24 µM (inactive) | > 10 µM (inactive) | 7.73 µM (inactive) | > 10 µM (inactive) | > 10 µM (inactive) | > 10 µM (inactive) | > 10 µM (inactive) | 8.79 µM (inactive) | 2.79 µM (inactive) | > 10 µM (inactive) | > 10 µM (inactive) | 6.18 µM (inactive) | > 10 µM (inactive) | > 10 µM (inactive) | 
17 | O=S(=O)(F)Cc1ccccc1 [PHENYLMETHYLSULFONYLFLUORIDE] | > 100 µM (inactive) |  |  | > 100 µM | > 100 µM (inactive) | > 100 µM (inactive) | > 100 µM (inactive) | > 100 µM (inactive) | > 100 µM (inactive) | > 100 µM (inactive) | > 100 µM (inactive) | > 100 µM (inactive) | > 100 µM (inactive) | > 100 µM (inactive) | > 100 µM (inactive) | > 100 µM (inactive) | > 100 µM (inactive) | > 100 µM (inactive) | > 100 µM (inactive) | 
